Publication PMC6438679, “New lupeol esters as active substances in the treatment of skin damage” (PLoS ONE, 2019)
Counter-ions that a name gives are not always drawn.

Tests used:
[1] = test system: Reconstructed Human Epidermis (RHE) EpiDerm; assay: In vitro Skin Irritation Test on Reconstructed Human Epidermis (MTT viability); conditions: for increase of cell concentration in comparison to control samples: RHE model, proliferation
Method: A Skin Irritation Test was prepared according to SOP (Standard Operation Protocol) of In vitro Skin Irritation Test (ECVAM): Human Skin Model, EpiDerm-200, Version: 7.0, 30th Oct 2007.
Standard EpiDermFT kit (MatTek Corporation) consisted of 24 tissues. Costar Snapwell single well tissue culture plate inserts had the surface area of about 1.0 cm^2 and the diameter of about 1.2 cm. Moreover inserts were equipped with pores (size 0.4 μm diameter). Before test, all tissues were visually inspected if there are any physical imperfections. […] The culture medium was fed through a microporous membrane. The tissue contained 8–12 cell layers plus stratum corneum (basal, spinous, and granular layers) [35].
In vitro skin irritation test was prepared according to the procedure described by Kandarova et al. [35]. On the first day, tissues were topically exposed to the oil solutions of tested triterpenes. White crystals of each compound were dissolved in caprylic and capric triglyceride (Crodamol GTCC, Croda). The esters concentration in the solutions was 0.5% (m/m). Three tissues were used for each tested substance, as well as for the positive and negative control. Positive control solution consisted of 5% aq. solution of SDS (Sodium Dodecyl Sulfate, Mattek), and a negative control solution consisted of Caprylic and Capric Triglycerides (Crodamol GTCC, Croda). Chemical exposure time was 60 min, during which, for 35 min, the tissues were kept in an incubator at 37°C (chamber Heraeus, Kendro). The test substances were then removed from the tissue surface by an extensive washing procedure using DPBS (phosphate-buffered saline, pH = 7.4, Mattek). The tissue inserts were blotted and transferred to fresh medium.
After 24 hours of incubation, the medium was exchanged and the tissues were incubated for an additional 18 hours. After 42 hours of incubation time, the tissues were transferred into a yellow solution of MTT (3-(4,5-dimethylthiazol-2-yl)-2,5-diphenyltetrazolium bromide, Mattek) and incubated for a further 3 hours. The resultant purple-blue formazan salt, formed mainly by mitochondrial metabolism, was extracted after 2 hours with isopropanol, pure (Mattek). The optical density (OD570) of the extracted formazan solution was determined using a spectrophotometer (Biotek, PowerWave XS). Cells viability assay was calculated referring to the negative control tissues. A substance is classified as an irritant if the tissue viability relative to the negative control treated tissues is reduced below 50%.

SMILES	melting point	increase of cell concentration in comparison to control samples [1]	Viability [%] / SD ([1]; Epiderm, 0.5% (m/m) in caprylic and capric triglyceride, 60 min exposure, 42 h incubation, MTT, relative to negative control, n = 3)
C=C(C)C1CCC2(C)CCC3(C)C(CCC4C5(C)CCC(OC(=O)CCC(=O)O)C(C)(C)C5CCC43C)C12 (stereo not drawn) (as salt: succinate) [Compound 5, Lupeol succinate]	221 to 223 °C		
C=C(C)[C@@H]1CC[C@]2(C)CC[C@]3(C)[C@H](CC[C@@H]4[C@@]5(C)CC[C@H](OC(=O)c6ccccc6OC(C)=O)C(C)(C)[C@@H]5CC[C@]43C)[C@@H]12 [Compound 6, Lupeol acetylsalicylate]	226 to 229 °C		
C=C(C)C1CCC2(C)CCC3(C)C(CCC4C5(C)CCC(OC(=O)CC)C(C)(C)C5CCC43C)C12 (stereo not drawn) [Compound 3, Lupeol propionate]	220 to 222 °C	more than 30%	
CCCCCCCCCCCCOS(=O)(=O)[O-].[Na+] [PC, Sodium Dodecyl Sulfate, reference compound]			28.1%
C=C(C)C1CCC2(C)CCC3(C)C(CCC4C5(C)CCC(OC(C)=O)C(C)(C)C5CCC43C)C12 (stereo not drawn) [Compound 2, Lupeol acetate]	216 to 219 °C	more than 30%	
C=C(C)[C@@H]1CC[C@]2(C)CC[C@]3(C)[C@H](CC[C@@H]4[C@@]5(C)CC[C@H](OC(=O)c6ccncc6)C(C)(C)[C@@H]5CC[C@]43C)[C@@H]12 [Compound 4, Lupeol isonicotinate]	179 to 183 °C	more than 30%	
